According to patent US20070265194A1, “Agents for the treatment of viral infections” (priority 2000, published 2007):
Peptide text beside a SMILES is read from it. * marks the point of attachment. Cbz = O=C(OCc1ccccc1)*

Assays:
HIV-1 protease = HIV-1 protease (Human immunodeficiency virus type 1 group M subtype B, UniProt P04585); assay: In vitro Gag processing of recombinant Pr55 by recombinant HIV-1 protease, Western blot; format: biochemical; details: for inhibition of protease activity: 10-fold higher concentration than in the cell culture, 30 min reaction, FIG. 3 reactions 4-9; for inhibitory action on Gag processing by HIV-1 protease: inhibitor concentration of up to 100 microM, enzyme-to-substrate ratio 1:25
From the text: Therefore, a possible influence of proteasome inhibitors on the enzymic activity of the HIV-1 protease is investigated within the framework of the invention by studying the in vitro processing of Gag polyprotein (for this, see exemplary embodiment 4). For this purpose, according to the invention, recombinant Pr55 is expressed in insect cells and purified from released virus-like particles. Enzymatically active HIV-1 protease is expressed in E. coli and chromatographically purified. The specific activity of the protease is determined by means of titration of the active sites. Pr55 and protease are set to an enzyme-to-substrate ratio of 1:25 and incubated for a defined time under conditions under which only approx. 50% of the substrate Pr55 is proteolytically processed. These reaction conditions allow sensitive detection of small effects on the enzymic activity of the protease.
Recombinant HIV-1 Gag polyprotein Pr55 was prepared in insect cells and recombinant HIV-1 protease was prepared in E. coli. The experimental details of expression, purification and determination of the enzymic activity as well as carrying out the in vitro cleavage reactions and Western blots are illustrated in more detail in Example 6f. The enzyme-to-substrate ratios (protease-Pr55 ratio) were chosen in such a way that substrate conversion was relatively slow. After 30 min of reaction, approx. 50% of Pr55 had been cleaved. Under these conditions it is possible to determine even weakly inhibitory effects on the enzymic activity of the protease.
Myristylated Pr55 of HIV-1 was produced from virus-like particles which were released from insect cells infected with recombinant baculovirus Gag12myr. The virus-like particles were purified by centrifugation through a 20% sucrose layer. Recombinant HIV-1 protease expressed in E. coli was purified by means of gel filtration chromatography on Superose 12. The enzyme concentration was determined by means of active-site titration. For cleavage reactions, usually 1 μM Pr55 was incubated with 40 nM (nanomol) PR in reaction buffer (50 mM MES pH 6.5, 300 mM NaCl, 2 mM DTT, 1 mM EDTA, 0.1% Triton-X 100) at 37° C. for 30 min. In order to ensure maximum saturation of PR with inhibitors, PR was preincubated with the particular inhibitor for 5 min, prior to the start of the cleavage reactions. The cleavage reactions were stopped by adding SDS sample buffer and boiling the sample for 10 min. The cleavage products were fractionated in 10% SDS-PAGE and then detected by means of Western blot. For this purpose, anti-CA-specific antibodies were used which were detected by means of anti-rabbit IgG-peroxidase conjugate and chemiluminescence reaction.
Recombinant Pr55 was isolated from virus-like particles which had been produced by insect cells infected with recombinant bacculovirus. Recombinant HIV-1 protease was expressed in E. coli, purified, and the specific activity was determined by active-site titration. The quantities of Pr55 and protease were mixed with an enzyme-to-substrate ratio of 1:25 and incubated at 37° C. for 30 min. The reaction was stopped by adding SDS sample buffer. The cleavage reactions were then studied by Western blot analysis with CA-specific antiserum. Pr55, CA and intermediate processing product MA-Ca were made visible, after antibody binding, by means of a chemiluminescence reaction. […]

mouse thymus cell lines = details: cited from earlier work
DHBV = assay: Primary and secondary DHBV infection in primary duck hepatocytes, core immunofluorescence; format: cell-based, duck hepatitis B virus
20S proteasome = 20S proteasome (Homo sapiens, UniProt P28074); details: in vitro; cited from earlier work
HIV-1NL4-3 [1] = assay: Virus release from HIV-1-infected A3.01 T cells, p24 CA capture ELISA; format: cell-based
Description: Cultures of human CD4^+ T cells, A3.01 were infected with HIV-1NL4-3 and cultured in RPMI for approx. 7 days. Approx. 80% of the cell culture medium was replaced every other day. The amount of released virus particles was determined by testing samples of the cell culture supernatants for activity of virus-associated RT. Furthermore, the spread of the infection was monitored by indirect immunofluorescence with anti-CA antibodies. The time of maximum spread of the infection in the culture was determined on the basis of RT accumulation and of syncytia formation. At the time of maximum virus production (approx. 7 days after infection), fresh noninfected A3.01 cells were mixed with the infected culture in a 1:1 ratio and incubated for another 24 h. This makes it possible to quasi-synchronize the infection and to maximize the number of infected cells with maximum HIV expression at a given time. The cells were divided into parallel cultures, washed with PBS and treated with 40 microM zLLL in medium for 4.5 hours. […] The virus-containing cell culture supernatants were collected, filtered, and the amount of Gag proteins was quantified by means of a standardized capture ELISA using anti-CA antibodies with different epitopes. […] The infectivity of the culture supernatants was determined by means of end point titration (detailed in example 6d) and is indicated as TCID50 in Table 1. The specific infectivity was determined by dividing TCID50 by the total amount of Gag and is listed in Table 1 as percentage infectivity of the control culture (no zLLL=100%). […]
CD4^+ T cells (A3.01) were infected with HIV-1NL4-3, at the time of maximum virus production (approx. 7 days post infection), parallel cultures were treated either without or with 40 μM zLLL for 1 (+zLLL “−1 hr”) or 6 hours (+zLLL “−6 hr”). […] The virus-containing supernatants were collected, and the amount of CA antigen was quantified by means of ELISA. The specific infectivity was determined as the infectious virus titer per nanog of CA and depicted relative to the untreated control culture (100%). […]

HIV-1NL4-3 [2] = assay: Infectivity of released virions, end point titration (TCID50) on C8166 cells; format: cell-based; details: for Infectivity Titer/ng p24^CA / Virus titer/ml TCID50 / Infectivity % of “no zLLL”: 40 μM zLLL; for Infectivity % of “no zLLL”: control = 100; for reduction of infectious virions in the cell culture medium: 40 microM zLLL
Description: Cultures of human CD4^+ T cells, A3.01 were infected with HIV-1NL4-3 and cultured in RPMI for approx. 7 days. Approx. 80% of the cell culture medium was replaced every other day. The amount of released virus particles was determined by testing samples of the cell culture supernatants for activity of virus-associated RT. Furthermore, the spread of the infection was monitored by indirect immunofluorescence with anti-CA antibodies. The time of maximum spread of the infection in the culture was determined on the basis of RT accumulation and of syncytia formation. At the time of maximum virus production (approx. 7 days after infection), fresh noninfected A3.01 cells were mixed with the infected culture in a 1:1 ratio and incubated for another 24 h. This makes it possible to quasi-synchronize the infection and to maximize the number of infected cells with maximum HIV expression at a given time. The cells were divided into parallel cultures, washed with PBS and treated with 40 microM zLLL in medium for 4.5 hours. Washing of the cells and culturing in fresh medium was necessary in order to monitor the newly produced viruses during the harvest period of 4.5 hours (+zLLL “0 hr”). It was assumed that there is a certain lag phase of approx. 1 hour, corresponding to HIV-1 assembly, between the start of the treatment with proteasome inhibitors and the release of defective virions. In order to monitor the virus production of cells with inactivated proteasomes at the start of the harvest period, parallel cultures were pretreated with 40 microm zLLL prior to the washing step for one (+zLLL “−1 hr”) or 6 hours (+zLLL “−6 hr”). A parallel culture was incubated without inhibitor (no zLLL). The virus-containing cell culture supernatants were collected, filtered, and the amount of Gag proteins was quantified by means of a standardized capture ELISA using anti-CA antibodies with different epitopes. […] The infectivity of the culture supernatants was determined by means of end point titration (detailed in example 6d) and is indicated as TCID50 in Table 1. The specific infectivity was determined by dividing TCID50 by the total amount of Gag and is listed in Table 1 as percentage infectivity of the control culture (no zLLL=100%). Both the release of Gag proteins and the infectivity of the released virions are shown to be inhibited after zLLL treatment. This effect increases with time, and infectious virions in the cell culture medium are reduced by 84% after 4.5 hours and by 98% after another 6 hours of pretreatment (Table 1).
CD4^+ T cells (A3.01) were infected with HIV-1NL4-3, at the time of maximum virus production (approx. 7 days post infection), parallel cultures were treated either without or with 40 μM zLLL for 1 (+zLLL “−1 hr”) or 6 hours (+zLLL “−6 hr”). This was followed by washing the cells and another 4.5 hours of incubating with or without 40 μM zLLL. In a parallel culture, cells were treated with 40 μM zLLL immediately after washing (+zLLL “0 hr”). The virus-containing supernatants were collected, and the amount of CA antigen was quantified by means of ELISA. The specific infectivity was determined as the infectious virus titer per nanog of CA and depicted relative to the untreated control culture (100%).
Acute HIV-1NL4-3-infected A3.01 cells were treated with 40 microM zLLL for various times, as indicated in exemplary embodiment 1. Cell-free cell culture supernatant was harvested and filtered (pore size=0.45 microm). The relative quantity of released virions was quantified by means of a p24^CA-antigen capture ELISA. For the purpose of virus titration, in each case 8 parallel cultures of C8166 cells were infected with the particular viral preparations, in a serial 10-fold dilution. The infectivity titer was determined as 50% cell culture infectious dose (TCID50), namely by determining syncytia formation for each culture and dilution step on day 10 post infection. […]

HIV-1NL4-3 [3] = format: cell-based
HIV-1NL4-3 [4] = assay: HIV-1 replication in A3.01 cell culture, RT activity in supernatant; format: cell-based; details: for productive infection in the culture (RT accumulation): 5 microM, approx. 2 weeks

CC(=O)N[C@@H](CSC(=O)[C@]1([C@@H](O)C(C)C)NC(=O)[C@H](C)[C@@H]1O)C(=O)O [LC, lactacystin]
inhibition of protease activity (HIV-1 protease): not possible to detect any inhibition
inhibitory action on Gag processing by HIV-1 protease (HIV-1 protease): no inhibitory action whatsoever
concentration tolerated in cell culture (mouse thymus cell lines): up to 6 μM

C=C(C)C[C@H](NC(=O)[C@H](CO)NC(=O)CCCCC(C)C)C(=O)[C@@]1(CO)CO1 [eponemycin]
number of core-positive cells compared to untreated cultures (DHBV; 1 μM, day 3 to day 6 after infection): much lower number of core-positive cells
tolerability in HepG2 (HepG2): still tolerated well

CC[C@H](C)[C@H](NC(=O)[C@H]([C@@H](C)CC)N(C)C(C)=O)C(=O)N[C@H](C(=O)N[C@@H](CC(C)C)C(=O)[C@@]1(C)CO1)[C@@H](C)O [epoxomicin]
concentration from which toxic symptoms appeared (HepG2; human, 48 h): ≥ 100 nM

CC(C)c1nc(CN(C)C(=O)N[C@H](C(=O)N[C@@H](Cc2ccccc2)C[C@H](O)[C@H](Cc2ccccc2)NC(=O)OCc2cncs2)C(C)C)cs1 [ritonavir]
inhibition of chymotrypsin activity of the 20S proteasome (20S proteasome): can inhibit

CC(C)(C)NC(=O)[C@@H]1C[C@@H]2CCCC[C@@H]2CN1C[C@@H](O)[C@H](Cc1ccccc1)NC(=O)[C@H](CC(N)=O)NC(=O)c1ccc2ccccc2n1 [saquinavir]
in vitro processing of Pr55 (HIV-1 protease; control, FIG. 3 reaction 10): complete blockage

Cc1ccc(C(=O)Nc2ccc(S(=O)(=O)O)c3cc(S(=O)(=O)O)cc(S(=O)(=O)O)c23)cc1NC(=O)c1cccc(NC(=O)Nc2cccc(C(=O)Nc3cc(C(=O)Nc4ccc(S(=O)(=O)O)c5cc(S(=O)(=O)O)cc(S(=O)(=O)O)c45)ccc3C)c2)c1 [suramin]
number of the core-expressing cells (DHBV; 100 microg/ml, from three days after infection for three days): very greatly reduced
establishment of the primary infection (DHBV; pretreatment 100 microg/ml, 2 h pre-infection): completely blocks

CC(C)C[C@@H](C=O)NC(=O)[C@H](CC(C)C)NC(=O)[C@H](CC(C)C)NC(=O)OCc1ccccc1 [zLLL, N-carbobenzoxyl-L-leucinyl-L-leucinyl-L-leucinal] (Cbz-Leu-Leu-Leu-aldehyde)
Virus release ng p24^CA/ml (HIV-1NL4-3 [1]; 40 μM zLLL added immediately after washing (“0 hr”), 4.5 hours harvest, A3.01): 122 ng p24^CA/ml
Virus release ng p24^CA/ml (HIV-1NL4-3 [1]; 40 μM zLLL, 1 hour pretreatment (“−1 hr”) plus 4.5 hours harvest): 88 ng p24^CA/ml
Virus release ng p24^CA/ml (HIV-1NL4-3 [1]; 40 μM zLLL, 6 hours pretreatment (“−6 hr”) plus 4.5 hours harvest): 26 ng p24^CA/ml
Infectivity Titer/ng p24^CA (HIV-1NL4-3 [2]; “0 hr”, 4.5 hours harvest): 1.0 × 10^4 Titer/ng p24^CA
Virus titer/ml TCID50 (HIV-1NL4-3 [2]; “0 hr”, 4.5 hours harvest): 1.2 × 10^6 TCID50/ml
Infectivity % of “no zLLL” (HIV-1NL4-3 [2]; “0 hr”, 4.5 hours harvest): 14%
Infectivity Titer/ng p24^CA (HIV-1NL4-3 [2]; “−1 hr” plus 4.5 hours harvest): 5.0 × 10^3 Titer/ng p24^CA
Virus titer/ml TCID50 (HIV-1NL4-3 [2]; “−1 hr” plus 4.5 hours harvest): 4.4 × 10^5 TCID50/ml
Infectivity % of “no zLLL” (HIV-1NL4-3 [2]; “−1 hr” plus 4.5 hours harvest): 7%
Infectivity Titer/ng p24^CA (HIV-1NL4-3 [2]; “−6 hr” plus 4.5 hours harvest): 1.5 × 10^3 Titer/ng p24^CA
Virus titer/ml TCID50 (HIV-1NL4-3 [2]; “−6 hr” plus 4.5 hours harvest): 3.8 × 10^4 TCID50/ml
Infectivity % of “no zLLL” (HIV-1NL4-3 [2]; “−6 hr” plus 4.5 hours harvest): 2%
reduction of infectious virions in the cell culture medium (HIV-1NL4-3 [2]; after 4.5 hours): 84%
reduction of infectious virions in the cell culture medium (HIV-1NL4-3 [2]; after another 6 hours of pretreatment): 98%
kinetics of intracellular Gag processing and of the release of virus-associated and free Gag (HIV-1NL4-3 [3]): distinct delay
inhibition of protease activity (HIV-1 protease): not possible to detect any inhibition
inhibitory action on Gag processing by HIV-1 protease (HIV-1 protease): no inhibitory action whatsoever
effect on HIV-1 replication (HIV-1NL4-3 [4]; 1 microM): completely inhibits replication
productive infection in the culture (RT accumulation) (HIV-1NL4-3 [4]; FIG. 4 panel 1): no productive infection at all
productive infection in the culture (RT accumulation) (HIV-1NL4-3 [4]; FIG. 4 panel 2): only a very reduced productive infection
effect on HIV-1 replication (HIV-1NL4-3 [4]; 100 nanoM): relatively weak inhibitory effect
